Reference: patent US6737383B1, “Herbicidal oxadiazolidines” (priority 1999, dated 2004)

Legend:
bedstraw = test: Test B pre/postemergence bedstraw; format: in vivo, Galium aparine
Procedure, shortened: (§1)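 Response is a visual 0-to-10 score relative to untreated plants, where 0 means no effect and 10 means complete control, taken twelve to sixteen days after application. Treatments went onto soil at planting and onto foliage of 1- to 4-leaf plants, using a surfactant-containing non-phytotoxic solvent.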

rice = test: Test B flood test rice; format: in vivo, Oryza sativa
Procedure, shortened: (§2)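 Each value is a visual injury score relative to controls, with 10 meaning complete control and 0 no effect. Evaluation took place twelve to sixteen days after the 2-leaf-stage plants were treated and kept in the greenhouse.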

sugar beet = test: Test B pre/postemergence sugar beet; format: in vivo, Beta vulgaris
Procedure, shortened: as §1

smallflower flatsedge = test: Test B flood test smallflower flatsedge; format: in vivo, Cyperus difformis
Procedure, shortened: as §2

corn = test: Test B pre/postemergence corn; format: in vivo, Zea mays
Procedure, shortened: as §1

giant foxtail = test: Test B pre/postemergence giant foxtail; format: in vivo, Setaria faberii
Procedure, shortened: as §1

crabgrass = test: Test B pre/postemergence crabgrass; format: in vivo, Digitaria sanguinalis
Procedure, shortened: as §1

rape = test: Test B pre/postemergence rape; format: in vivo, Brassica napus
Procedure, shortened: as §1

soybean = test: Test B pre/postemergence soybean; format: in vivo, Glycine max
Procedure, shortened: as §1

duck salad = test: Test B flood test duck salad; format: in vivo, Heteranthera limosa
Procedure, shortened: as §2

morningglory = test: Test B pre/postemergence morningglory; format: in vivo, Ipomoea hederacea
Procedure, shortened: as §1

pigweed = test: Test B pre/postemergence pigweed; format: in vivo, Amaranthus retroflexus
Procedure, shortened: as §1

wild oat = test: Test B pre/postemergence wild oat; format: in vivo, Avena fatua
Procedure, shortened: as §1

velvetleaf = test: Test B pre/postemergence velvetleaf; format: in vivo, Abutilon theophrasti
Procedure, shortened: as §1

purple nutsedge = test: Test B pre/postemergence purple nutsedge; format: in vivo, Cyperus rotundus
Procedure, shortened: as §1

bamyardgrass = test: Test B flood test barnyardgrass; format: in vivo, Echinochloa crus-galli
Procedure, shortened: as §2

cocklebur = test: Test B pre/postemergence cocklebur; format: in vivo, Xanthium strumarium
Procedure, shortened: as §1

surinam grass = test: Test B pre/postemergence surinam grass; format: in vivo, Brachiaria decumbens
Procedure, shortened: as §1

blackgrass = test: Test B pre/postemergence blackgrass; format: in vivo, Alopecurus myosuroides
Procedure, shortened: as §1

wheat = test: Test B pre/postemergence wheat; format: in vivo, Triticum aestivum
Procedure, shortened: as §1

[1] = Preemergence, Rate 62 g/ha, scale of 0 to 10 where 0 is no effect and 10 is complete control
[2] = Preemergence, Rate 125 g/ha, scale 0 to 10, 0 is no effect, 10 is complete control
[3] = Preemergence, Rate 250 g/ha, scale 0 to 10, 0 is no effect, 10 is complete control
[4] = Preemergence, Rate 500 g/ha, scale 0 to 10, 0 is no effect, 10 is complete control
[5] = Rate 62 g/ha, Postemergence, scale 0 to 10 (0 no effect, 10 complete control)
[6] = Rate 62 g/ha, flood test species, Pre-emergence, visual evaluation after twelve to sixteen days
[7] = Rate 125 g/ha, under heading Pre-emergence, flood test species, visual evaluation after twelve to sixteen days
[8] = Rate 250 g/ha, Pre-emergence (flood test species), scale 0 to 10, 0 is no effect, 10 is complete control
[9] = Rate 500 g/ha, Pre-emergence section of Table B, 0 to 10 scale (0 no effect, 10 complete control)
[10] = Postemergence, Rate 125 g/ha, scale 0 to 10, 0 is no effect, 10 is complete control
[11] = Postemergence, Rate 500 g/ha, scale 0 to 10, 0 is no effect, 10 is complete control
[12] = Preemergence, Rate 500 g/ha, scale of 0 to 10 where 0 is no effect and 10 is complete control
[13] = Postemergence, Rate 250 g/ha, scale 0 to 10

Q: Which results are given for `CC(C)N(C(=O)n1oc(=O)n(CC2=NCCCO2)c1=O)c1ccccc1` [Compound 494]?
A: Plant response rating, Bedstraw (bedstraw; [1]): 0; Bedstraw plant response rating (bedstraw; [2]): 0; Bedstraw plant response rating (bedstraw; [3]): 0; Bedstraw plant response rating (bedstraw; [4]): 0; Bedstraw plant response rating (bedstraw; [5]): 0; Plant response rating, Rice (0 to 10 scale, 0 is no effect, 10 is complete control) (rice; [6]): 0; Rice plant response rating (0 to 10 scale, 0 is no effect, 10 is complete control) (rice; [7]): 0; Rice plant response rating (rice; [8]): 0; Rice plant response rating (rice; [9]): 0; Sugarbeets plant response rating (sugar beet; [10]): 0; Plant response rating, Sugarbeets (sugar beet; [11]): 0; Plant response rating, Sugarbeets (sugar beet; [1]): 0; Sugarbeets plant response rating (sugar beet; [2]): 0; Sugarbeets plant response rating (sugar beet; [12]): 0; Sugarbeets plant response rating (sugar beet; [5]): 0; Plant response rating, S. Flatsedge (0 to 10 scale, 0 is no effect, 10 is complete control) (smallflower flatsedge; [6]): 0; S. Flatsedge plant response rating (0 to 10 scale, 0 is no effect, 10 is complete control) (smallflower flatsedge; [7]): 0; S. Flatsedge plant response rating (smallflower flatsedge; [8]): 0; S. Flatsedge plant response rating (smallflower flatsedge; [9]): 0; Corn plant response rating (corn; [10]): 0; Corn plant response rating (corn; [13]): 0; Plant response rating, Corn (corn; [11]): 0; Plant response rating, Corn (corn; [1]): 0; Corn plant response rating (corn; [2]): 0; Corn plant response rating (corn; [12]): 0; Corn plant response rating (corn; [5]): 0; Giant foxtail plant response rating (giant foxtail; [10]): 0; Plant response rating, Giant foxtail (giant foxtail; [11]): 0; Plant response rating, Giant foxtail (giant foxtail; [1]): 0; Giant foxtail plant response rating (giant foxtail; [2]): 0; Giant foxtail plant response rating (giant foxtail; [12]): 0; Giant foxtail plant response rating (giant foxtail; [5]): 0; Crabgrass plant response rating (crabgrass; [10]): 0; Plant response rating, Crabgrass (crabgrass; [1]): 0; Crabgrass plant response rating (crabgrass; [2]): 0; Crabgrass plant response rating (crabgrass; [12]): 0; Crabgrass plant response rating (crabgrass; [5]): 0; Rape plant response rating (rape; [10]): 0; Plant response rating, Rape (rape; [11]): 0; Plant response rating, Rape (rape; [1]): 0; Rape plant response rating (rape; [2]): 0; Rape plant response rating (rape; [12]): 0; Rape plant response rating (rape; [5]): 0; Soybean plant response rating (soybean; [10]): 0; Plant response rating, Soybean (soybean; [11]): 1; Plant response rating, Soybean (soybean; [1]): 0; Soybean plant response rating (soybean; [2]): 1; Soybean plant response rating (soybean; [12]): 1; Soybean plant response rating (soybean; [5]): 0; Plant response rating, Ducksalad (0 to 10 scale, 0 is no effect, 10 is complete control) (duck salad; [6]): 0; Ducksalad plant response rating (0 to 10 scale, 0 is no effect, 10 is complete control) (duck salad; [7]): 0; Ducksalad plant response rating (duck salad; [8]): 0; Ducksalad plant response rating (duck salad; [9]): 0; Morningglory plant response rating (morningglory; [10]): 0; Plant response rating, Morningglory (morningglory; [11]): 0; Plant response rating, Morningglory (morningglory; [1]): 0; Morningglory plant response rating (morningglory; [2]): 0; Morningglory plant response rating (morningglory; [12]): 0; Morningglory plant response rating (morningglory; [5]): 0; Redroot pigweed plant response rating (pigweed; [10]): 0; Plant response rating, Redroot pigweed (pigweed; [11]): 0; Plant response rating, Redroot pigweed (pigweed; [1]): 0; Redroot pigweed plant response rating (pigweed; [2]): 0; Redroot pigweed plant response rating (pigweed; [12]): 0; Redroot pigweed plant response rating (pigweed; [5]): 0; Wild oats plant response rating (wild oat; [10]): 0; Plant response rating, Wild oats (wild oat; [11]): 0; Plant response rating, Wild oats (wild oat; [1]): 0; Wild oats plant response rating (wild oat; [2]): 0; Wild oats plant response rating (wild oat; [12]): 0; Wild oats plant response rating (wild oat; [5]): 0; Velvetleaf plant response rating (velvetleaf; [10]): 0; Plant response rating, Velvetleaf (velvetleaf; [11]): 0; Plant response rating, Velvetleaf (velvetleaf; [1]): 0; Velvetleaf plant response rating (velvetleaf; [2]): 0; Velvetleaf plant response rating (velvetleaf; [12]): 0; Velvetleaf plant response rating (velvetleaf; [5]): 0; Nutsedge plant response rating (purple nutsedge; [10]): 0; Plant response rating, Nutsedge (purple nutsedge; [11]): 0; Plant response rating, Nutsedge (purple nutsedge; [1]): 0; Nutsedge plant response rating (purple nutsedge; [2]): 0; Nutsedge plant response rating (purple nutsedge; [12]): 0; Nutsedge plant response rating (purple nutsedge; [5]): 0; Plant response rating, Barnyardgrass (0 to 10 scale, 0 is no effect, 10 is complete control) (bamyardgrass; [6]): 0; Barnyardgrass plant response rating (0 to 10 scale, 0 is no effect, 10 is complete control) (bamyardgrass; [7]): 0; Barnyardgrass plant response rating (bamyardgrass; [8]): 0; Barnyardgrass plant response rating (bamyardgrass; [9]): 0; Cocklebur plant response rating (cocklebur; [10]): 0; Cocklebur plant response rating (cocklebur; [13]): 0; Plant response rating, Cocklebur (cocklebur; [11]): 0; Plant response rating, Cocklebur (cocklebur; [1]): 0; Cocklebur plant response rating (cocklebur; [2]): 0; Cocklebur plant response rating (cocklebur; [3]): 0; Cocklebur plant response rating (cocklebur; [12]): 0; Cocklebur plant response rating (cocklebur; [5]): 0; B. signalgrass plant response rating (surinam grass; [10]): 0; B. signalgrass plant response rating (surinam grass; Postemergence, Rate 250 g/ha, scale 0 to 10, 0 no effect, 10 complete control): 0; Plant response rating, B. signalgrass (surinam grass; [11]): 0; Plant response rating, B. signalgrass (surinam grass; [1]): 0; B. signalgrass plant response rating (surinam grass; [2]): 0; B. signalgrass plant response rating (surinam grass; [3]): 0; B. signalgrass plant response rating (surinam grass; [4]): 0; B. signalgrass plant response rating (surinam grass; [5]): 0; Blackgrass plant response rating (blackgrass; [10]): 0; Blackgrass plant response rating (blackgrass; [13]): 0; Plant response rating, Blackgrass (blackgrass; [11]): 0; Plant response rating, Blackgrass (blackgrass; [1]): 0; Blackgrass plant response rating (blackgrass; [2]): 0; Blackgrass plant response rating (blackgrass; [3]): 0; Blackgrass plant response rating (blackgrass; [12]): 0; Blackgrass plant response rating (blackgrass; [5]): 0; Wheat plant response rating (wheat; [10]): 0; Plant response rating, Wheat (wheat; [11]): 0; Plant response rating, Wheat (wheat; [1]): 0; Wheat plant response rating (wheat; [2]): 0; Wheat plant response rating (wheat; [12]): 0; Wheat plant response rating (wheat; [5]): 0
